# From US11136325B2, “Pyrrolopyrimidine and pyrrolopyridine derivatives” (GALAPAGOS NV, priority 2017, dated 2021)
# System: CFA induced hypersensitivity in rat
# Assay: CFA induced hypersensitivity in rat assessed using weight bearing method
# Format: in vivo
# Conditions: 10 mg/kg, 24 hours post CFA, 1, 2 and 4 hours post treatment
# Excerpt: Intraplantar injection of Complete Freunds adjuvant (CFA) causes an inflammatory reaction which induces hypersensitivity and oedema, and mimics some aspects of clinical inflammatory pain. These effects can be investigated using equipment to measure weight bearing and plethysmometer.
# Naive rats distribute their body weight equally between the two hind paws. However, when the injected (left) hind paw is inflamed and/or painful, the weight is re-distributed so that less weight is put on the affected paw (decrease in weight bearing on injured paw). Weight bearing through each hind limb was measured using a rat incapacitance tester (Linton Instruments, UK).
# Rats were placed in the incapacitance tester with the hind paws on separate sensors and the average force exerted by both hind limbs was recorded over 4 seconds.
# Base line weight bearing and paw volume readings were taken and hypersensitivity was induced via injection of CFA (Baseline weight bearing and paw volume recordings were taken prior to induction of insult. Inflammatory hypersensitivity was induced by intraplantar injection of CFA (100 μL of 1 mg/mL solution) intraplantar to the rats left hind paw.
# Animals (Male, Sprague Dawley Rats (Charles River, UK), 212-260 g) were ranked and randomised to treatment groups according to the weight bearing CFA window in a Latin square design. […]
smiles,measurement,value
"COc1ccc2c(c1)c(CC(=O)O)c(C)n2C(=O)c1ccc(Cl)cc1 [Indomethacin, reference compound]",hypersensitivity response (weight bearing),significantly inhibited
